From patent US20220143198A1, “COMPOSITIONS AND METHODS RELATED TO TETHERED KETHOXAL DERIVATIVES” (The University of Chicago, priority 2019, published 2022)

Key:
[1] = system: guanosine; assay: Reversibility of kethoxal derivatives using GTP for competition (LCMS of free guanosine); type: physicochemical; settings: 1:1 ratio
[2] = system: guanosine; assay: Reactivity of kethoxal derivatives with guanosine (conversion rates of guanosine); type: biochemical
[3] = pH = 7.0, 10 min, excess GTP added after 10 min
[4] = pH = 7.0, 2 h, excess GTP competitor
[5] = pH = 7.0, 24 h, excess GTP competitor
[6] = pH = 7.8, S1:S2 = 2:1 (S1 guanosine, S2 kethoxal derivative)

Row | Structure (SMILES) | Conversion of guanosine under competition condition [1, 3] [%] | Conversion of guanosine under competition condition [1, 4] [%] | Conversion of guanosine under competition condition [1, 5] [%] | Conversion rate of guanosine ([2]; pH = 7.0, S1:S2 = 1:1) [%] | Conversion rate of guanosine ([2]; pH = 7.0, S1:S2 = 1:2) [%] | Conversion rate of guanosine ([2]; pH = 7.0, S1:S2 = 2:1) [%] | Conversion rate of guanosine ([2]; pH = 7.8, S1:S2 = 1:1) [%] | Conversion rate of guanosine ([2]; pH = 7.8, S1:S2 = 1:2) [%] | other results
1 | CC(Br)C(=O)C=O (centres unmarked) [drawing 82] | 46.2 | 38.2 | 18.6 |  |  |  |  |  | 
2 | CC(C(=O)C=O)N(C)C(=O)CN=[N+]=[N-] (centres unmarked) [drawing 55] |  |  |  | 46.2 | 64.2 | 20.4 |  |  | Conversion rate of guanosine ([2]; pH = 7.0, S1:S2 = 1:4): 84.7%
3 | [N-]=[N+]=NCCOCC(=O)C=O [drawing 48] |  |  |  | 52.2 | 79.2 | 30.3 |  |  | 
4 | [N-]=[N+]=NCCOC(F)C(=O)C=O (centres unmarked) [drawing 58] |  |  |  | 6.4 | 8.2 | 3.2 |  |  | Conversion rate of guanosine ([2]; pH = 7.0, S1:S2 = 1:0): 24.7%; Conversion rate of guanosine ([2]; pH = 7.0, S1:S2 = 1:4): 16.5%
5 | [N-]=[N+]=NCCCC(=O)C=O [drawing 39] |  |  |  |  |  |  | 48.0 | 70.5 | Conversion rate of guanosine ([2]; pH = 7.8, S1:S2 = 1:3): 88.9%; Conversion rate of guanosine ([2]; pH = 7.8, S1:S2 = 1:5): 89.2%; Conversion rate of guanosine [2, 6]: 23.8%
6 | CC(OC(=O)CN=[N+]=[N-])C(=O)C=O (centres unmarked) [drawing 49] |  |  |  | 50.1 | 81.3 | 29.5 |  |  | 
7 | [N-]=[N+]=NCCOCCC(=O)C=O [drawing 41] |  |  |  |  |  |  | 41.1 | 60.0 | Conversion rate of guanosine ([2]; pH = 7.8, S1:S2 = 1:3): 66.4%; Conversion rate of guanosine ([2]; pH = 7.8, S1:S2 = 1:5): 73.6%; Conversion rate of guanosine [2, 6]: 25.2%
8 | CC(C)(OCCN=[N+]=[N-])C(=O)C=O [drawing 78] | 51.6 | 55.9 | 33.6 |  |  |  |  |  | 
9 | [N-]=[N+]=NCCCC(=O)C=O [drawing 85] | 46.2 | 21.0 | 22.1 |  |  |  |  |  | 
10 | CC(N=[N+]=[N-])C(=O)C=O (centres unmarked) [drawing 81] | 56.5 | 40.9 |  |  |  |  |  |  | 
11 | CC(OCCN=[N+]=[N-])C(=O)C=O (centres unmarked) [drawing 77] | 71.4 | 60.8 | 28.9 |  |  |  |  |  | 
12 | CC(C(=O)C=O)N(C)C(=O)CN=[N+]=[N-] (centres unmarked) [drawing 86] | 41.8 | 26.1 | 23.4 |  |  |  |  |  | 
13 | [N-]=[N+]=NCCOC(F)(F)C(=O)C=O [drawing 59] |  |  |  | 1.4 | 1.9 | 0 |  |  | Conversion rate of guanosine ([2]; pH = 7.0, S1:S2 = 1:0): 9.8%; Conversion rate of guanosine ([2]; pH = 7.0, S1:S2 = 1:4): 3.8%
14 | CC(OCCN=[N+]=[N-])C(=O)C=O (centres unmarked) [drawing 46] |  |  |  | 70.6 | 93.7 | 39.6 |  |  | 
15 | [N-]=[N+]=NCCOCC(=O)C=O [drawing 79] | 47.4 | 29.7 | 27.4 |  |  |  |  |  | 
16 | CC(Br)C(=O)C=O (centres unmarked) [drawing 51] |  |  |  | 40.4 | 81.2 | 22.4 |  |  | 
17 | [N-]=[N+]=NCCOCCC(=O)C=O [drawing 87] | 41.3 | 12.6 | 11.2 |  |  |  |  |  | 
18 | CC(C)(OCCN=[N+]=[N-])C(=O)C=O [drawing 32] |  |  |  |  |  |  | 81.6 | 97.4 | Conversion rate of guanosine [2, 6]: 51.3%
19 | O=CC(=O)Cc1ccccc1 [drawing 91] | 21.8 | 9.6 | 8.4 |  |  |  |  |  | 

Row | Structure (SMILES) | Conversion of guanosine under competition condition [1, 3] [%] | Conversion of guanosine under competition condition [1, 4] [%] | Conversion of guanosine under competition condition [1, 5] [%] | Conversion rate of guanosine ([2]; pH = 7.0, S1:S2 = 1:1) [%] | Conversion rate of guanosine ([2]; pH = 7.0, S1:S2 = 1:2) [%] | Conversion rate of guanosine ([2]; pH = 7.0, S1:S2 = 2:1) [%] | Conversion rate of guanosine ([2]; pH = 7.8, S1:S2 = 1:1) [%] | Conversion rate of guanosine ([2]; pH = 7.8, S1:S2 = 1:2) [%] | other results
20 | [N-]=[N+]=NCCCC(=O)C=O [drawing 54] |  |  |  | 40.8 | 63.2 | 19.8 |  |  | Conversion rate of guanosine ([2]; pH = 7.0, S1:S2 = 1:4): 87.2%
21 | CC(C(=O)C=O)N(C)C(=O)CN=[N+]=[N-] (centres unmarked) [drawing 40] |  |  |  |  |  |  | 40.2 | 66.7 | Conversion rate of guanosine ([2]; pH = 7.8, S1:S2 = 1:3): 74.9%; Conversion rate of guanosine ([2]; pH = 7.8, S1:S2 = 1:5): 83.2%
22 | [N-]=[N+]=NCCOCC(=O)C=O [drawing 33] |  |  |  |  |  |  | 78.6 | 95.4 | Conversion rate of guanosine [2, 6]: 51.3%
23 | CC(OC(=O)CN=[N+]=[N-])C(=O)C=O (centres unmarked) [drawing 34] |  |  |  |  |  |  | 77.5 | 92.1 | Conversion rate of guanosine [2, 6]: 43.6%
24 | CC(N=[N+]=[N-])C(=O)C=O (centres unmarked) [drawing 35] |  |  |  |  |  |  | 71.2 | 90.3 | Conversion rate of guanosine ([2]; pH = 7.8, S1:S2 = 1:3): 96.5%; Conversion rate of guanosine [2, 6]: 38.0%
25 | CC(Br)C(=O)C=O (centres unmarked) [drawing 36] |  |  |  |  |  |  | 67.2 | 89.9 | Conversion rate of guanosine ([2]; pH = 7.8, S1:S2 = 1:3): 92.2%; Conversion rate of guanosine [2, 6]: 35.8%
26 | CC(N=[N+]=[N-])C(=O)C=O (centres unmarked) [drawing 50] |  |  |  | 46.7 | 79.2 | 22.0 |  |  | Conversion rate of guanosine ([2]; pH = 7.0, S1:S2 = 1:4): 95.3%
27 | O=CC(=O)c1ccccc1 [phenyl-substituted kethoxal derivative] |  |  |  | 18.8 | 37.6 |  | 32.2 | 51.2 | Conversion rate of guanosine ([2]; pH = 7.0, S1:S2 = 1:3): 51.0%; Conversion rate of guanosine ([2]; pH = 7.0, S1:S2 = 1:5): 67.0%; Conversion rate of guanosine ([2]; pH = 7.8, S1:S2 = 1:3): 66.2%; Conversion rate of guanosine ([2]; pH = 7.8, S1:S2 = 1:5): 80.1%
28 | CC(OCCN=[N+]=[N-])C(=O)C=O (centres unmarked) [drawing 31] |  |  |  |  |  |  | 86.9 | 97.4 | Conversion rate of guanosine [2, 6]: 51.6%
29 | [N-]=[N+]=NCCOC(F)C(=O)C=O (centres unmarked) [drawing 89] | 6.4 | 18.6 | 22.8 |  |  |  |  |  | 
30 | CC(OC(=O)CN=[N+]=[N-])C(=O)C=O (centres unmarked) [drawing 80] | 54.4 | 44.6 | 37.5 |  |  |  |  |  | 
31 | O=CC(=O)c1ccccc1 [drawing 57] |  |  |  | 22.5 | 33.2 | 9.9 |  |  | Conversion rate of guanosine ([2]; pH = 7.0, S1:S2 = 1:4): 51.5%
32 | [N-]=[N+]=NCCOC(F)C(=O)C=O (centres unmarked) [drawing 43] |  |  |  |  |  |  | 30.9 | 49.6 | Conversion rate of guanosine ([2]; pH = 7.8, S1:S2 = 1:3): 69.5%; Conversion rate of guanosine ([2]; pH = 7.8, S1:S2 = 1:5): 76.7%; Conversion rate of guanosine ([2]; pH = 7.8, S1:S2 = 1:10): 81.6%
33 | [N-]=[N+]=NCCOC(F)(F)C(=O)C=O [drawing 44] |  |  |  |  |  |  | 14.7 | 28.9 | Conversion rate of guanosine ([2]; pH = 7.8, S1:S2 = 1:3): 38.7%; Conversion rate of guanosine ([2]; pH = 7.8, S1:S2 = 1:5): 63.1%; Conversion rate of guanosine [2, 6]: 8.5%
34 | O=CC(=O)c1ccccc1 [drawing 88] | 25.7 | 12.3 | 4.4 |  |  |  |  |  | 
35 | CCN(CC)C(C)C(=O)C=O (centres unmarked) | 66.9 | 66.1 | 36.3 |  |  |  |  |  | 
36 | CC(C)(OCCN=[N+]=[N-])C(=O)C=O [drawing 47] |  |  |  | 46.7 | 76.6 | 23.6 |  |  | 
37 | [N-]=[N+]=NCCOCCC(=O)C=O [drawing 56] |  |  |  | 38.3 | 49.6 | 16.8 |  |  | 
38 | O=CC(=O)Cc1ccccc1 [drawing 60] |  |  |  | 22.5 | 30.4 | 9.0 |  |  | 
